Patent US20080312201A1, “Reduced Toxicity Methotrexate Formulations and Methods for Using the Same” (priority 2004, published 2008)

How the values were obtained:
Ovarian cancer cell = assay: Human cancer cell assessment; assay type: cell-based
From the text: As a quick secondary screen, the additive alone and in combination with the target drug was examined in these human cancer cell lines. The results of TK-336 are shown as a specific example. The compound alone when treated over a wide concentration range had no effects against the cancer cells.

fruit flies = assay: Lethal dose (LD) curve in fruit flies; assay type: in vivo, Drosophila; settings: chemical mixed into food and water, 50 wild-type embryos; range tested 0.01 mM to 5 mM
Method: The LD curve in fruit flies was generated for methotrexate. The data to generate the curve was obtained by: Mixing a specific concentration of chemical into the food and water supply of the fruit flies, then 50 wild-type embryos are added to the assay. The LD value for this concentration was calculated by 100−(2×(number of alive flies)). The LD curve was generated by repeating this method over a concentration range. For example, the concentration range tested for methotrexate was 0.01 mM to 5 mM. The LD 98 was identified for methotrexate was 0.5 mM. The LD98 was used as a stringent level for identifying additive chemicals that reduce the toxicity. This stringent level of toxicity is key for several reasons: 1) The high toxicity dose turns even mild toxic side effects into significant barriers for the flies to survive. At the LD98 concentration of methotrexate, all of the toxic mechanisms are orders of magnitude above that observed at physiological treatment doses. At the LD98 dose, suppressing any one toxicity side effect will not enable significant survival of the flies. An additive that enables significant survival is more likely able to reduce all toxic side effects of methotrexate.

mice = assay: Mouse testing: toxic side effects of MTX, liver examination; assay type: in vivo; settings: after two weeks of treatment every other day
Method: (§1) The primary aspect is testing in mice for the ability to translate the toxic reducing action of the additive from flies into mice. Methotrexate was administered at a more moderate dose level, repeatedly over a long period of time. All additives tested for reducing the toxic side effects of MTX in mice were successful. That is 100% of the compounds identified in flies as toxic reducing compounds translated this activity into mice, for both chronic and acute applications. One of the signs of chronic liver damage by methotrexate is metabolic weight gain. The treatments were done on older juvenile mice (cohort of six). There weight gain was followed for two weeks with treatments given every other day.
At the end of the experiment, livers were examined.

[1] = Mouse testing: weight gain under repeated methotrexate; assay type: in vivo; settings: older juvenile mice, cohort of six; for weight: treatments every other day
Method: as §1

CN(Cc1cnc2nc(N)nc(N)c2n1)c1ccc(C(=O)N[C@@H](CCC(=O)O)C(=O)O)cc1 [MTX]
Cell survival (Ovarian cancer cell; 15 μg/ml): 50%
Cell survival (Ovarian cancer cell; 30 μg/ml): 5%
LD98 (fruit flies): 0.5 mM
appearance of the livers at the end of the experiment (mice): smaller, yellow/orange in color and had almost no veins in the organ
vein density in the liver (mice): 5 % of the normal density
weight ([1]; Day 0): 107
weight ([1]; Day 7): 107
weight ([1]; Day 14): 110
weight gain/week ([1]; over two weeks): ~1 % weight gain/week
